Experimental data taken from PubChem BioAssay (NCI).
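Five concentrations, 48 hours, 96-well plates. TGI denotes the concentration required for complete inhibition of growth.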

Tests used:
Assay in all cases: inhibition of tumour cell growth, NCI panel, 48 h
SNB-75 CNS = tested on: SNB-75 CNS
HOP-62 NSCLC = tested on: HOP-62 NSCLC
CAKI-1 renal = tested on: CAKI-1 renal
LOX IMVI melanoma = tested on: LOX IMVI melanoma
SK-MEL-2 melanoma = tested on: SK-MEL-2 melanoma
HCT-15 colon = tested on: HCT-15 colon
NCI-H23 lung = tested on: NCI-H23 lung
UO-31 renal = tested on: UO-31 renal
ACHN renal = tested on: ACHN renal
SR leukemia = tested on: SR leukemia
MCF7 breast = tested on: MCF7 breast
M14 melanoma = tested on: M14 melanoma
OVCAR-5 ovarian = tested on: OVCAR-5 ovarian
RXF 393 renal = tested on: RXF 393 renal
T-47D breast = tested on: T-47D breast
PC-3 prostate = tested on: PC-3 prostate
NCI/ADR-RES ovarian = tested on: NCI/ADR-RES ovarian
UACC-62 melanoma = tested on: UACC-62 melanoma
U251 CNS = tested on: U251 CNS
SF-268 CNS = tested on: SF-268 CNS
MALME-3M melanoma = tested on: MALME-3M melanoma
MDA-MB-435 = tested on: MDA-MB-435
IGROV1 ovarian = tested on: IGROV1 ovarian
UACC-257 melanoma = tested on: UACC-257 melanoma
HOP-92 NSCLC = tested on: HOP-92 NSCLC
SNB-19 CNS = tested on: SNB-19 CNS
HS 578T breast = tested on: HS 578T breast
OVCAR-4 ovarian = tested on: OVCAR-4 ovarian
MDA-MB-231 breast = tested on: MDA-MB-231 breast
NCI-H522 lung = tested on: NCI-H522 lung
EKVX NSCLC = tested on: EKVX NSCLC
MDA-N = tested on: MDA-N
OVCAR-8 ovarian = tested on: OVCAR-8 ovarian
RPMI-8226 leukemia = tested on: RPMI-8226 leukemia
BT-549 breast = tested on: BT-549 breast
A498 renal = tested on: A498 renal
A549 NSCLC = tested on: A549 NSCLC
786-0 renal = tested on: 786-0 renal
SK-MEL-28 melanoma = tested on: SK-MEL-28 melanoma
HCT-116 colon = tested on: HCT-116 colon
HT29 colon = tested on: HT29 colon
SF-295 CNS = tested on: SF-295 CNS
KM12 colon = tested on: KM12 colon
OVCAR-3 ovarian = tested on: OVCAR-3 ovarian
SK-OV-3 ovarian = tested on: SK-OV-3 ovarian
TK-10 renal = tested on: TK-10 renal
SW-620 colon = tested on: SW-620 colon
MOLT-4 leukemia = tested on: MOLT-4 leukemia
SN12C renal = tested on: SN12C renal
HL-60(TB) leukemia = tested on: HL-60(TB) leukemia
SK-MEL-5 melanoma = tested on: SK-MEL-5 melanoma
CCRF-CEM leukemia = tested on: CCRF-CEM leukemia
HCC-2998 colon = tested on: HCC-2998 colon
NCI-H226 lung = tested on: NCI-H226 lung
SF-539 CNS = tested on: SF-539 CNS
K-562 leukemia = tested on: K-562 leukemia
COLO 205 colon = tested on: COLO 205 colon
DU-145 prostate = tested on: DU-145 prostate
NCI-H460 lung = tested on: NCI-H460 lung

With COC(=O)C(=O)C(C(=O)OC)C(=O)C(=O)Nc1ccccc1C(N)=O (stereo unspecified) the TGI (SNB-75 CNS) was greater than 100 µM, the TGI (HOP-62 NSCLC) was greater than 100 µM and the TGI (CAKI-1 renal) was greater than 100 µM. The TGI (LOX IMVI melanoma) was greater than 100 µM, the TGI (SK-MEL-2 melanoma) was greater than 100 µM and the TGI (HCT-15 colon) was greater than 100 µM. It also gave a TGI (NCI-H23 lung) greater than 100 µM, a TGI (UO-31 renal) greater than 100 µM and a TGI (ACHN renal) greater than 100 µM. The TGI (SR leukemia) was greater than 100 µM, the TGI (MCF7 breast) was greater than 100 µM and the TGI (M14 melanoma) was greater than 100 µM. It also gave a TGI (OVCAR-5 ovarian) greater than 100 µM, a TGI (RXF 393 renal) greater than 100 µM and a TGI (T-47D breast) greater than 100 µM. It also gave a TGI (PC-3 prostate) greater than 100 µM, a TGI (NCI/ADR-RES ovarian) greater than 100 µM and a TGI (UACC-62 melanoma) greater than 100 µM. It also gave a TGI (U251 CNS) greater than 100 µM, a TGI (SF-268 CNS) greater than 100 µM and a TGI (MALME-3M melanoma) greater than 100 µM. For the same compound, the TGI (MDA-MB-435) was greater than 100 µM, the TGI (IGROV1 ovarian) was greater than 100 µM and the TGI (UACC-257 melanoma) was greater than 100 µM. The TGI (HOP-92 NSCLC) was greater than 100 µM, the TGI (SNB-19 CNS) was greater than 100 µM and the TGI (HS 578T breast) was greater than 100 µM. The TGI (OVCAR-4 ovarian) was greater than 100 µM, the TGI (MDA-MB-231 breast) was greater than 100 µM and the TGI (NCI-H522 lung) was greater than 100 µM. For the same compound, the TGI (EKVX NSCLC) was greater than 100 µM, the TGI (MDA-N) was greater than 100 µM and the TGI (OVCAR-8 ovarian) was greater than 100 µM. It also gave a TGI (RPMI-8226 leukemia) greater than 100 µM, a TGI (BT-549 breast) greater than 100 µM and a TGI (A498 renal) greater than 100 µM. For the same compound, the TGI (A549 NSCLC) was greater than 100 µM, the TGI (786-0 renal) was greater than 100 µM and the TGI (SK-MEL-28 melanoma) was greater than 100 µM. It also gave a TGI (HCT-116 colon) greater than 100 µM, a TGI (HT29 colon) greater than 100 µM and a TGI (SF-295 CNS) greater than 100 µM. The TGI (KM12 colon) was greater than 100 µM, the TGI (OVCAR-3 ovarian) was greater than 100 µM and the TGI (SK-OV-3 ovarian) was greater than 100 µM. For the same compound, the TGI (TK-10 renal) was greater than 100 µM, the TGI (SW-620 colon) was greater than 100 µM and the TGI (MOLT-4 leukemia) was greater than 100 µM. For the same compound, the TGI (SN12C renal) was greater than 100 µM, the TGI (HL-60(TB) leukemia) was greater than 100 µM and the TGI (SK-MEL-5 melanoma) was greater than 100 µM. It also gave a TGI (CCRF-CEM leukemia) greater than 100 µM, a TGI (HCC-2998 colon) greater than 100 µM and a TGI (NCI-H226 lung) greater than 100 µM. For the same compound, the TGI (SF-539 CNS) was greater than 100 µM.
Compound O=c1[nH]nc(Cc2ccccc2)n1O has a TGI (HOP-62 NSCLC) greater than 100 µM, a TGI (CAKI-1 renal) greater than 100 µM and a TGI (LOX IMVI melanoma) greater than 100 µM. It also gave a TGI (NCI-H23 lung) greater than 100 µM, a TGI (UO-31 renal) greater than 100 µM and a TGI (ACHN renal) greater than 100 µM. It also gave a TGI (SR leukemia) greater than 100 µM, a TGI (MCF7 breast) greater than 100 µM and a TGI (K-562 leukemia) greater than 100 µM. The TGI (T-47D breast) was greater than 100 µM, the TGI (NCI/ADR-RES ovarian) was greater than 100 µM and the TGI (UACC-62 melanoma) was greater than 100 µM. For the same compound, the TGI (U251 CNS) was greater than 100 µM, the TGI (SF-268 CNS) was greater than 100 µM and the TGI (COLO 205 colon) was greater than 100 µM. It also gave a TGI (MALME-3M melanoma) greater than 100 µM, a TGI (MDA-MB-435) greater than 100 µM and a TGI (IGROV1 ovarian) greater than 100 µM. The TGI (UACC-257 melanoma) was greater than 100 µM, the TGI (HOP-92 NSCLC) was greater than 100 µM and the TGI (SNB-19 CNS) was greater than 100 µM. For the same compound, the TGI (HS 578T breast) was greater than 100 µM, the TGI (OVCAR-4 ovarian) was greater than 100 µM and the TGI (MDA-MB-231 breast) was greater than 100 µM. It also gave a TGI (NCI-H522 lung) greater than 100 µM, a TGI (EKVX NSCLC) greater than 100 µM and a TGI (MDA-N) greater than 100 µM. It also gave a TGI (OVCAR-8 ovarian) greater than 100 µM, a TGI (RPMI-8226 leukemia) greater than 100 µM and a TGI (BT-549 breast) greater than 100 µM. The TGI (A498 renal) was greater than 100 µM, the TGI (A549 NSCLC) was greater than 100 µM and the TGI (786-0 renal) was greater than 100 µM. The TGI (SK-MEL-28 melanoma) was greater than 100 µM, the TGI (HCT-116 colon) was greater than 100 µM and the TGI (DU-145 prostate) was greater than 100 µM. It also gave a TGI (HT29 colon) greater than 100 µM, a TGI (SF-295 CNS) greater than 100 µM and a TGI (KM12 colon) greater than 100 µM. The TGI (OVCAR-3 ovarian) was greater than 100 µM, the TGI (SK-OV-3 ovarian) was greater than 100 µM and the TGI (TK-10 renal) was greater than 100 µM. It also gave a TGI (SW-620 colon) greater than 100 µM, a TGI (MOLT-4 leukemia) greater than 100 µM and a TGI (SN12C renal) greater than 100 µM. The TGI (HL-60(TB) leukemia) was greater than 100 µM, the TGI (SK-MEL-5 melanoma) was greater than 100 µM and the TGI (CCRF-CEM leukemia) was greater than 100 µM. For the same compound, the TGI (NCI-H226 lung) was greater than 100 µM and the TGI (SF-539 CNS) was greater than 100 µM.
CCCCOC(=O)NC(c1ccccc1)C(O)C(=O)OC1C[C@@]2(O)C(OC(=O)c3ccccc3)C3[C@](C)(C(=O)[C@H](OC(C)=O)C(=C1C)C2(C)C)[C@@H](O)C[C@H]1OC[C@@]31OC(C)=O (stereo partly specified) showed a TGI (SNB-75 CNS) greater than 10 µM, a TGI (HOP-62 NSCLC) greater than 10 µM and a TGI (LOX IMVI melanoma) greater than 10 µM. The TGI (HCT-15 colon) was greater than 10 µM, the TGI (NCI-H23 lung) was greater than 10 µM and the TGI (UO-31 renal) was greater than 10 µM. For the same compound, the TGI (ACHN renal) was greater than 10 µM, the TGI (SR leukemia) was greater than 10 µM and the TGI (MCF7 breast) was greater than 10 µM. For the same compound, the TGI (M14 melanoma) was greater than 10 µM, the TGI (OVCAR-5 ovarian) was greater than 10 µM and the TGI (RXF 393 renal) was 0.0755 µM. For the same compound, the TGI (K-562 leukemia) was greater than 10 µM, the TGI (T-47D breast) was greater than 10 µM and the TGI (PC-3 prostate) was greater than 10 µM. The TGI (NCI/ADR-RES ovarian) was greater than 6.5 µM, the TGI (UACC-62 melanoma) was greater than 10 µM and the TGI (U251 CNS) was greater than 10 µM. It also gave a TGI (SF-268 CNS) greater than 10 µM, a TGI (COLO 205 colon) greater than 10 µM and a TGI (MDA-MB-435) of 0.0241 µM. For the same compound, the TGI (IGROV1 ovarian) was greater than 10 µM, the TGI (HOP-92 NSCLC) was greater than 10 µM and the TGI (SNB-19 CNS) was greater than 10 µM. The TGI (HS 578T breast) was 0.0469 µM, the TGI (OVCAR-4 ovarian) was greater than 10 µM and the TGI (MDA-MB-231 breast) was greater than 10 µM. The TGI (EKVX NSCLC) was greater than 10 µM, the TGI (MDA-N) was 0.0113 µM and the TGI (OVCAR-8 ovarian) was greater than 10 µM. For the same compound, the TGI (RPMI-8226 leukemia) was greater than 7.96 µM, the TGI (BT-549 breast) was greater than 10 µM and the TGI (A498 renal) was 0.0663 µM. The TGI (A549 NSCLC) was greater than 10 µM, the TGI (786-0 renal) was greater than 10 µM and the TGI (HCT-116 colon) was greater than 10 µM. It also gave a TGI (HT29 colon) of 6.81 µM, a TGI (SF-295 CNS) greater than 10 µM and a TGI (KM12 colon) greater than 10 µM. It also gave a TGI (OVCAR-3 ovarian) greater than 6.88 µM, a TGI (SK-OV-3 ovarian) greater than 10 µM and a TGI (TK-10 renal) greater than 10 µM. It also gave a TGI (NCI-H460 lung) greater than 10 µM, a TGI (SW-620 colon) greater than 10 µM and a TGI (MOLT-4 leukemia) greater than 9.14 µM. It also gave a TGI (SN12C renal) greater than 10 µM, a TGI (HL-60(TB) leukemia) of 0.00741 µM and a TGI (SK-MEL-5 melanoma) greater than 10 µM. For the same compound, the TGI (CCRF-CEM leukemia) was greater than 10 µM, the TGI (HCC-2998 colon) was 0.595 µM and the TGI (SF-539 CNS) was 0.0175 µM.
